Key:
[1] = target: T1, Peroxisome proliferator-activated receptor gamma (Homo sapiens, UniProt P37231); assay type: functional
T1 sequence (P37231 whole entry): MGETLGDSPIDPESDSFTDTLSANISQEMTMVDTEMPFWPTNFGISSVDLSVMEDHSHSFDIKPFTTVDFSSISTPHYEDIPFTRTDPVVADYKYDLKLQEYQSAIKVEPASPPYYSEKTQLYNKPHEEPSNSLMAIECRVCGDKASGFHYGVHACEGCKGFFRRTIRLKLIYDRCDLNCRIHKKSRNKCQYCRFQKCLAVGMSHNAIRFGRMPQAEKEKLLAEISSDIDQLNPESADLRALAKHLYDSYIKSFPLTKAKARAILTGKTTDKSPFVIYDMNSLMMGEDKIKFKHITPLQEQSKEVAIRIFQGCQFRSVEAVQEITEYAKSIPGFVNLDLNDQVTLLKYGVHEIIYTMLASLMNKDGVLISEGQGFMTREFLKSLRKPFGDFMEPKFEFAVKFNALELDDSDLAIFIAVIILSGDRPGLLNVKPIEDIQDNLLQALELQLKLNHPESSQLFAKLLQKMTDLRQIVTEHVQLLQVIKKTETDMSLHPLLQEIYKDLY

[2] = target: T1, Peroxisome proliferator-activated receptor gamma; assay type: functional; remark: listed apart in the source
[3] = target: T2, Muscarinic acetylcholine receptor M1 (Homo sapiens, UniProt P11229)
T2 sequence (P11229 whole entry): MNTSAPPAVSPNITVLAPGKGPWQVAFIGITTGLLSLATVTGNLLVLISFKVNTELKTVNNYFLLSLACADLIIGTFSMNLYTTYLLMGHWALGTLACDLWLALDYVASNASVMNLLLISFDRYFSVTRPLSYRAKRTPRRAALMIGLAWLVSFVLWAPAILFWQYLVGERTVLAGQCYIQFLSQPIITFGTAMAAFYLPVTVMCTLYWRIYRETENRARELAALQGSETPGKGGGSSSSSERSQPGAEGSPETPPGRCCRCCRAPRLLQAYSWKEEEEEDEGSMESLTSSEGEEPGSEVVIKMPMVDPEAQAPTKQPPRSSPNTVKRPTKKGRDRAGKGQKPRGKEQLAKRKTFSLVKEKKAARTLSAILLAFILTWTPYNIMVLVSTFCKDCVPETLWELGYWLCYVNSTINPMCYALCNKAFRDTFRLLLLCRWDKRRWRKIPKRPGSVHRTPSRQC

[4] = target: 5-hydroxytryptamine receptor 2A (Homo sapiens, UniProt P28223)
Histamine H1 receptor = Histamine H1 receptor (Homo sapiens, UniProt P35367); assay type: functional, cell-based
[5] = target: T3, Muscarinic acetylcholine receptor M2 (Homo sapiens, UniProt P08172)
T3 sequence (P08172 whole entry): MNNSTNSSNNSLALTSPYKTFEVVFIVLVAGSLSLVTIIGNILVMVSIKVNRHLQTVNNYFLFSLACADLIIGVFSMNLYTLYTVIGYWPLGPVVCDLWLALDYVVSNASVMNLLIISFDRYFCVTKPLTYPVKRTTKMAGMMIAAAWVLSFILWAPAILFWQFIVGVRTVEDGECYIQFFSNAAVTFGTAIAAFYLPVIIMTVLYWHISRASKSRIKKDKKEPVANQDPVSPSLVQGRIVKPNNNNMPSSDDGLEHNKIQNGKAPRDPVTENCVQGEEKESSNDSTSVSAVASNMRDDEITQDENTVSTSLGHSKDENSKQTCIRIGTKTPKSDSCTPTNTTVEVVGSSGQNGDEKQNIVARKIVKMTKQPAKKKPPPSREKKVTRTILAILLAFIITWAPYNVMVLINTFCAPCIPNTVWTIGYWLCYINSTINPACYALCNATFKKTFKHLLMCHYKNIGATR

D(4) dopamine receptor = target: T4, D(4) dopamine receptor (Homo sapiens, UniProt P21917)
T4 sequence (P21917 whole entry): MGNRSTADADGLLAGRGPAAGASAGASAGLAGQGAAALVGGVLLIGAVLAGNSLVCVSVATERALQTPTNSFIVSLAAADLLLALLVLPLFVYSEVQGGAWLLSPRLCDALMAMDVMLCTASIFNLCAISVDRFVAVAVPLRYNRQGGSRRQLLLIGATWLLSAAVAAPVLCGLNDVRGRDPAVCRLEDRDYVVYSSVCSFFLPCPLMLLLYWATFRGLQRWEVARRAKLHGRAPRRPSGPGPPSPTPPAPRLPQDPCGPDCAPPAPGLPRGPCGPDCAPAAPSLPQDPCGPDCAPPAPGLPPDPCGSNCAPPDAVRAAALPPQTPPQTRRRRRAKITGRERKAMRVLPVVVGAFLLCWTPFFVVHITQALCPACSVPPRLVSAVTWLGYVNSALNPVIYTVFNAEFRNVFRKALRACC

[6] = target: T5, Type-2 angiotensin II receptor (Homo sapiens, UniProt P50052); assay type: functional
T5 sequence (P50052 whole entry): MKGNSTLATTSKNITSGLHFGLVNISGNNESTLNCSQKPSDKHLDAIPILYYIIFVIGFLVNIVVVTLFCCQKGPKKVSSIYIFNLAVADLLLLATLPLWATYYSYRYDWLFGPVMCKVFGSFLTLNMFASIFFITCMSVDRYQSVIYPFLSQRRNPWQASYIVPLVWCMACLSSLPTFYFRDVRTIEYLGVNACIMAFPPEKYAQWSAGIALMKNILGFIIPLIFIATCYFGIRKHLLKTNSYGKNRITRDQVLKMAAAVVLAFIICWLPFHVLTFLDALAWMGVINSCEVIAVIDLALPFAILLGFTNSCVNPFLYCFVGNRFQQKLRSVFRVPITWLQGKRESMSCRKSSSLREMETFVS

[7] = target: 5-hydroxytryptamine receptor 7 (Homo sapiens, UniProt P34969)
[8] = target: 5-hydroxytryptamine receptor 6 (Homo sapiens, UniProt P50406)
Note: assay procedure not described here.

5-hydroxytryptamine receptor 2A, sequence (P28223 whole entry): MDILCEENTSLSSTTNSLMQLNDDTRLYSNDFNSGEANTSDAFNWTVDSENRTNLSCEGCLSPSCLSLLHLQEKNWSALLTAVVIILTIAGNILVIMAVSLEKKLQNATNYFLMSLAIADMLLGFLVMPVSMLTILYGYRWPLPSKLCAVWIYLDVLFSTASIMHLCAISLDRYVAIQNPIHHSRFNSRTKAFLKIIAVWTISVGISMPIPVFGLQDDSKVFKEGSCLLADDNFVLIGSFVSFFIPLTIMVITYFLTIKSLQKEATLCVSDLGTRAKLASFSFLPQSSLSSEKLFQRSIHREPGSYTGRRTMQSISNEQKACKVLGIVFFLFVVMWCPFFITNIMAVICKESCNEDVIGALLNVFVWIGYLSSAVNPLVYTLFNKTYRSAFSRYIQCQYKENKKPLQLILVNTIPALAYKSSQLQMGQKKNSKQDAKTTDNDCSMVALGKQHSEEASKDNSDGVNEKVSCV
5-hydroxytryptamine receptor 7, sequence (P34969 whole entry): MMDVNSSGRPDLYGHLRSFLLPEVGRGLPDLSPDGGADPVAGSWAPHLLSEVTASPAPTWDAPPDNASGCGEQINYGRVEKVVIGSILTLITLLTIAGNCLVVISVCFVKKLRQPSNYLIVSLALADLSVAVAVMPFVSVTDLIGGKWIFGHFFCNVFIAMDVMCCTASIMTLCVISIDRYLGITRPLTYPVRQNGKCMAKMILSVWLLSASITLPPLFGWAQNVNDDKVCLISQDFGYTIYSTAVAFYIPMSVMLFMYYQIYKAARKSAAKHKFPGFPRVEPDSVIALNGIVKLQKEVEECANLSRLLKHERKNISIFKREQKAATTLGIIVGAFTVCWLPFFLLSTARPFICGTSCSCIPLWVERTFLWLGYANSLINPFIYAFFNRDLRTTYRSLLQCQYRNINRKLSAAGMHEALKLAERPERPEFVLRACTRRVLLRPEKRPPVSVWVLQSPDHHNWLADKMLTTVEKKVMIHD
5-hydroxytryptamine receptor 6, sequence (P50406 whole entry): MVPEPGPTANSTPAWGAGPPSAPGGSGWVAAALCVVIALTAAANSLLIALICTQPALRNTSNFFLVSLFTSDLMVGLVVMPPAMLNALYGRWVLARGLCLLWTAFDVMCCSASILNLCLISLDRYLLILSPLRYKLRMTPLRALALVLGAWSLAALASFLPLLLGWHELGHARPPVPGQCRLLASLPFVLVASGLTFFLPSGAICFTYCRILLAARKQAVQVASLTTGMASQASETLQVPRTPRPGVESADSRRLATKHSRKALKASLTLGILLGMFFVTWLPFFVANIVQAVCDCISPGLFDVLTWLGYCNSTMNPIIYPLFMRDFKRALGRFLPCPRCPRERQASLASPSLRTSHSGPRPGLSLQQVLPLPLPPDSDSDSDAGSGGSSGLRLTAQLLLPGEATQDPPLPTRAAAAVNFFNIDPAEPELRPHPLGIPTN
Histamine H1 receptor, sequence (P35367 whole entry): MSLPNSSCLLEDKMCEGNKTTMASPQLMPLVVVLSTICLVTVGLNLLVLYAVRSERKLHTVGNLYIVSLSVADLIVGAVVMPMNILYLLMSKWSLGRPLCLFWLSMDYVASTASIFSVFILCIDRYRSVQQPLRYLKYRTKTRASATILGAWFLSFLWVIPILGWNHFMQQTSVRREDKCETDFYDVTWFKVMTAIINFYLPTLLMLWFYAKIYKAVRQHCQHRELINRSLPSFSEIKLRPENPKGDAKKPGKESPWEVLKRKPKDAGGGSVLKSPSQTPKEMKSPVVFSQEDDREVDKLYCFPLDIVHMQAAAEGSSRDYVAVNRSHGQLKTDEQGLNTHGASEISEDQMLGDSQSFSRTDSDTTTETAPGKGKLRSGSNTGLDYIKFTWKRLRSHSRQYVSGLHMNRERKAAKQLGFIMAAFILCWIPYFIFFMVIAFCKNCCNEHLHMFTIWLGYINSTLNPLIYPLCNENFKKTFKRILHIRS

Q: What does the source list for `CC[C@@H](C(N)=O)N1CCCC1=O`?
A: AC50 [1]: > 30 µM; AC50 [2]: > 30 µM

Q: How did the AC50 [1] turn out when `CCC(CC)(CC(=O)Nc1cccc(/C=C/c2nc(C3CCC3)cs2)c1)C(=O)O` was run?
A: > 30 µM

Q: And the AC50 [2]?
A: > 30 µM

Q: For `Nc1ccncc1N` [AMIFAMPRIDINE], which AC50 [3] is on record?
A: > 30 µM

Q: How did the AC50 [4] turn out when `C=CCN1C[C@H](C(=O)N(CCCN(C)C)C(=O)NCC)C[C@@H]2c3cccc4[nH]cc(c34)C[C@H]21` [CABERGOLINE] was run?
A: 0.0077 µM

Q: With `CN1CCN(C2=Nc3ccccc3Sc3ccc(Cl)cc32)CC1` [CLOTHIAPINE] as the molecule, how does the AC50 (Histamine H1 receptor) read?
A: 0.63 µM

Q: `CCOc1ccc(Cc2cc([C@@H]3O[C@H](CO)[C@@H](O)[C@H](O)[C@H]3O)ccc2Cl)cc1` [DAPAGLIFLOZIN] was tested. Which AC50 [5] did it give?
A: > 10 µM

Q: With `CC[C@H]1CN2CCc3cc(OC)c(OC)cc3[C@@H]2C[C@@H]1C[C@H]1NCCc2cc(OC)c(OC)cc21` [EMETINE] as the molecule, how does the AC50 [1] read?
A: > 30 µM

Q: And the AC50 [2]?
A: > 30 µM

Q: Which AC50 (D(4) dopamine receptor) does the source give for `COc1ccc(C(=O)Nc2ccccc2CCC2CCCCN2C)cc1` (configuration not stated) [ENCAINIDE] here?
A: > 10 µM

Q: And the AC50 (Histamine H1 receptor)?
A: > 30 µM

Q: And the AC50 [4]?
A: 0.103 µM

Q: And the AC50 [5]?
A: > 10 µM

Q: Which AC50 [6] does the source give for `CCOC(=O)/C=C1\SC(N2CCCCC2)C(=O)N1C` (configuration not stated) [ETOZOLIN] here?
A: > 100 µM

Q: With `O=[N+]([O-])O[C@@H]1CO[C@H]2[C@@H]1OC[C@@H]2O` [ISOSORBIDE MONONITRATE] as the molecule, how does the AC50 (D(4) dopamine receptor) read?
A: > 10 µM

Q: And the AC50 [4]?
A: > 10 µM

Q: What about the AC50 [5] of the same molecule?
A: > 10 µM

Q: Which AC50 [3] does the source give for `Cc1cc(C)c(NC(=O)CN(CC(=O)O)CC(=O)O)c(C)c1Br` [MEBROFENIN] here?
A: > 30 µM

Q: With `COc1ccccc1N1CCN(CC(O)COc2cccc3ccccc23)CC1` (configuration not stated) [NAFTOPIDIL] as the molecule, how does the AC50 [3] read?
A: > 30 µM

Q: With `COc1cc2nc(N3CCN(C(=O)c4ccco4)CC3)nc(N)c2cc1OC` [PRAZOSIN] as the molecule, how does the AC50 (D(4) dopamine receptor) read?
A: > 10 µM

Q: And the AC50 [6]?
A: > 100 µM

Q: And the AC50 [5]?
A: 13.2 µM

Q: With `O=[N+]([O-])c1cn2c(n1)OC[C@@H](OCc1ccc(OC(F)(F)F)cc1)C2` [PRETOMANID] as the molecule, how does the AC50 [7] read?
A: > 10 µM

Q: And the AC50 [8]?
A: > 10 µM

Q: What about the AC50 [4] of the same molecule?
A: > 10 µM

Q: For `Cc1oc(=O)oc1CN1CCN(c2cc3c(cc2F)c(=O)c(C(=O)O)c2n3C(C)S2)CC1` (configuration not stated) [PRULIFLOXACIN], which AC50 [3] is on record?
A: > 30 µM

Q: `CCN1CCCC1CNC(=O)c1cc(S(N)(=O)=O)ccc1OC` (configuration not stated) [SULPIRIDE] was tested. Which AC50 [6] did it give?
A: > 100 µM

Q: `CCCCCNC(=N)N/N=C/c1c[nH]c2ccc(OC)cc12` [TEGASEROD] was tested. Which AC50 [7] did it give?
A: 0.802 µM

Q: What about the AC50 (D(4) dopamine receptor) of the same molecule?
A: 0.657 µM

Q: And the AC50 [1]?
A: > 30 µM

Q: What about the AC50 [8] of the same molecule?
A: 0.198 µM

Q: What about the AC50 [4] of the same molecule?
A: 0.174 µM

Q: And the AC50 [2]?
A: > 30 µM

Q: How did the AC50 [3] turn out when `C=CCCCCCCCCC(=O)O` [UNDECYLENIC ACID] was run?
A: > 30 µM

Q: How did the AC50 [7] turn out when `CCOc1ccccc1OCC1CNCCO1` (configuration not stated) [VILOXAZINE] was run?
A: > 10 µM

Q: And the AC50 (D(4) dopamine receptor)?
A: > 10 µM

Q: What about the AC50 (Histamine H1 receptor) of the same molecule?
A: > 30 µM

Q: And the AC50 [6]?
A: > 100 µM

Q: What about the AC50 [8] of the same molecule?
A: > 10 µM

Q: And the AC50 [5]?
A: > 10 µM

Q: `CN(C)CCc1c[nH]c2ccc(C[C@H]3COC(=O)N3)cc12` [ZOLMITRIPTAN] was tested. Which AC50 (Histamine H1 receptor) did it give?
A: > 30 µM
